Measured values from ChEMBL document CHEMBL5053516, “Cinchona Alkaloid-Inspired Urea-Containing Autophagy Inhibitor Shows Single-Agent Anticancer Efficacy” (J Med Chem, 2021).
Calls of active or inactive are those of the source. No cut-off for these calls is given here.

What was measured:
[1] = tested on: Hep 3B2; assay: Cytotoxicity against human Hep3B cells assessed as cell viability by MTT assay; assay type: functional, cell-based
[2] = Cytotoxicity against mouse FL83B cells assessed as cell viability by MTT assay; assay type: cell-based
[3] = Cytotoxicity against mouse HCA1 cells assessed as cell viability by MTT assay; assay type: functional, cell-based
[4] = tested on: Mahlavu; assay: Cytotoxicity against human Mahlavu cells assessed as cell viability by MTT assay; assay type: functional, cell-based
[5] = tested on: HepG2; assay: Cytotoxicity against human HepG2 cells assessed as cell viability by MTT assay; assay type: functional, cell-based
[6] = Cytotoxicity against human JHH7 cells assessed as cell viability by MTT assay; assay type: functional, cell-based
[7] = tested on: Mahlavu; assay: Inhibition of autophagy in human Mahlavu cells assessed as increase in p62 expression measured at 0.1 to 0.5 uM by Western blot analysis; assay type: functional, cell-based; conditions: dose 0.1-0.5 µM, time 2-6 hrs, TDE = time-dependent effect
[8] = tested on: Mahlavu; assay: Reduction in Bcl-xL expression in human Mahlavu cells by Western blot analysis; assay type: functional, cell-based
[9] = tested on: Mahlavu; assay: Effect on LC3-I expression in human Mahlavu cells at 0.5 uM by Western blot analysis; assay type: functional, cell-based
[10] = tested on: HCA1; assay: Reduction in Bcl-xL expression in mouse HCA1 cells by Western blot analysis; assay type: functional, cell-based
[11] = tested on: HCA1; assay: Inhibition of autophagy in mouse HCA1 cells assessed as increase in LC3-II measured after 2 to 6 hrs by Western blot analysis; assay type: functional, cell-based; conditions: time 2-6 hrs
[12] = tested on: Mahlavu; assay: Inhibition of autophagy in human Mahlavu cells assessed as increase in p62 expression measured after 2 to 6 hrs by Western blot analysis; assay type: functional, cell-based; conditions: time 2-6 hrs
[13] = tested on: Mahlavu; assay: Inhibition of autophagy in human Mahlavu cells assessed as increase in LC3-II measured after 2 to 6 hrs by Western blot analysis; assay type: functional, cell-based; conditions: time 2-6 hrs
[14] = tested on: Mahlavu; assay: Downregulation of Akt expression in human Mahlavu cells by Western blot analysis; assay type: functional, cell-based
[15] = tested on: HCA1; assay: Inhibition of autophagy in mouse HCA1 cells assessed as increase in p62 expression measured after 2 to 6 hrs by Western blot analysis; assay type: functional, cell-based; conditions: time 2-6 hrs
[16] = tested on: Hep 3B2; assay: Inhibition of autophagy in human Hep3B cells assessed as increase in p62 expression measured after 2 to 6 hrs by Western blot analysis; assay type: functional, cell-based; conditions: time 2-6 hrs
[17] = tested on: Mahlavu; assay: Reduction in p53 expression in human Mahlavu cells by Western blot analysis; assay type: functional, cell-based
[18] = tested on: HCA1; assay: Inhibition of autophagy in mouse HCA1 cells assessed as increase in p62 expression measured at 0.1 to 0.5 uM by Western blot analysis; assay type: functional, cell-based; conditions: dose 0.1-0.5 µM, time 2-6 hrs, TDE = time-dependent effect
[19] = tested on: Hep 3B2; assay: Inhibition of autophagy in human Hep3B cells assessed as increase in LC3-II measured at 0.1 to 0.5 uM by Western blot analysis; assay type: functional, cell-based; conditions: dose 0.1-0.5 µM, time 2-6 hrs, TDE = time-dependent effect
[20] = tested on: HCA1; assay: Downregulation of Akt expression in mouse HCA1 cells by Western blot analysis; assay type: functional, cell-based
[21] = tested on: Hep 3B2; assay: Inhibition of autophagy in human Hep3B cells assessed as increase in LC3-II measured after 2 to 6 hrs by Western blot analysis; assay type: functional, cell-based; conditions: time 2-6 hrs
[22] = tested on: HCA1; assay: Induction of apoptosis in mouse HCA1 cells after 16 hrs using annexin V/PI staining assay; assay type: functional, cell-based
[23] = tested on: HCA1; assay: Effect on LC3-I expression in mouse HCA1 cells at 0.5 uM by Western blot analysis; assay type: functional, cell-based
[24] = tested on: Hep 3B2; assay: Inhibition of autophagy in human Hep3B cells assessed as increase in p62 expression measured at 0.1 to 0.5 uM by Western blot analysis; assay type: functional, cell-based; conditions: dose 0.1-0.5 µM, time 2-6 hrs, TDE = time-dependent effect
[25] = tested on: HCA1; assay: Induction of apoptosis in mouse HCA1 cells assessed as increase in cleaved caspase 3 measured after 2 hrs by Western blot analysis; assay type: functional, cell-based
[26] = tested on: Mahlavu; assay: Induction of apoptosis in human Mahlavu cells after 16 hrs using annexin V/PI staining assay; assay type: functional, cell-based
[27] = tested on: HCA1; assay: Inhibition of autophagy in mouse HCA1 cells assessed as increase in LC3-II measured at 0.1 to 0.5 uM by Western blot analysis; assay type: functional, cell-based; conditions: dose 0.1-0.5 µM, time 2-6 hrs, TDE = time-dependent effect
[28] = tested on: HCA1; assay: Inhibition of autophagosome-lysosome fusion in mouse HCA1 cells assessed as number of LC3 puncta at 1 uM for 2 hrs by immunofluorescence assay; assay type: functional, cell-based
[29] = tested on: Mahlavu; assay: Induction of apoptosis in human Mahlavu cells assessed as increase in cleaved caspase 3 measured after 2 hrs by Western blot analysis; assay type: functional, cell-based
[30] = tested on: Mahlavu; assay: Inhibition of autophagy in human Mahlavu cells assessed as increase in LC3-II measured at 0.1 to 0.5 uM by Western blot analysis; assay type: functional, cell-based; conditions: dose 0.1-0.5 µM, time 2-6 hrs, TDE = time-dependent effect
[31] = tested on: Mahlavu; assay: Inhibition of autophagosome-lysosome fusion in human Mahlavu cells assessed as number of LC3 puncta at 1 uM for 2 hrs by immunofluorescence assay; assay type: functional, cell-based
[32] = tested on: Hep 3B2; assay: Effect on LC3-I expression in human Hep3B cells at 0.5 uM by Western blot analysis; assay type: functional, cell-based
[33] = target: Serine/threonine-protein kinase AKT (Homo sapiens) (UniProt P31751+Q9Y243+P31749); assay: Inhibition of Akt phosphorylation in human Hep3B cells by Western blot analysis; assay type: cell-based
Chain of Serine/threonine-protein kinase AKT (Homo sapiens) (P31749 whole entry, looked up): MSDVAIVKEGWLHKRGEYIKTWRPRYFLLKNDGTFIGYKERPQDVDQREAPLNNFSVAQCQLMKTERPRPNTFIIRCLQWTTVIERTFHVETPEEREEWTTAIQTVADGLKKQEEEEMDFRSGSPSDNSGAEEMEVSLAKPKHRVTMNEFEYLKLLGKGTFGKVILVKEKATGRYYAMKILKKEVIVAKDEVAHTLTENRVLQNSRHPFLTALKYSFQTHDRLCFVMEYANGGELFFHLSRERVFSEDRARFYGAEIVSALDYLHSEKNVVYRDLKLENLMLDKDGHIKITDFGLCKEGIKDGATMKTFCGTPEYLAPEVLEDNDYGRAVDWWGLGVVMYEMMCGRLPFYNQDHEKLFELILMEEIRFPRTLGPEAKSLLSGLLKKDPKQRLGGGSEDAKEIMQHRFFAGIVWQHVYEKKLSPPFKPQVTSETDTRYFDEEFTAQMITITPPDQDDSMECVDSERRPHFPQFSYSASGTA
Chain of Serine/threonine-protein kinase AKT (Homo sapiens) (P31751 whole entry, looked up): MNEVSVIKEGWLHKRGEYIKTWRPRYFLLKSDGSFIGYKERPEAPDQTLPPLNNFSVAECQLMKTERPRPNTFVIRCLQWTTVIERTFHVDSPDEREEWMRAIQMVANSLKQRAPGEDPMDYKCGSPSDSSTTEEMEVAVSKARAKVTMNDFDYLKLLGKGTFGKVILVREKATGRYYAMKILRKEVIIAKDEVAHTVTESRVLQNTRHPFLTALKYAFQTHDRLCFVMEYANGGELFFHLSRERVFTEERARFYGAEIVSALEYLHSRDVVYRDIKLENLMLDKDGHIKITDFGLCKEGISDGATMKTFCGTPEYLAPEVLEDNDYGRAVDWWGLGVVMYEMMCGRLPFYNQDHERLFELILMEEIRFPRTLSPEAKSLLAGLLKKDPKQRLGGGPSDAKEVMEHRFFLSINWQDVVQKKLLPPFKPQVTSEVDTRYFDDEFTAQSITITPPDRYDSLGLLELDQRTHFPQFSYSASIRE
Chain of Serine/threonine-protein kinase AKT (Homo sapiens) (Q9Y243 whole entry, looked up): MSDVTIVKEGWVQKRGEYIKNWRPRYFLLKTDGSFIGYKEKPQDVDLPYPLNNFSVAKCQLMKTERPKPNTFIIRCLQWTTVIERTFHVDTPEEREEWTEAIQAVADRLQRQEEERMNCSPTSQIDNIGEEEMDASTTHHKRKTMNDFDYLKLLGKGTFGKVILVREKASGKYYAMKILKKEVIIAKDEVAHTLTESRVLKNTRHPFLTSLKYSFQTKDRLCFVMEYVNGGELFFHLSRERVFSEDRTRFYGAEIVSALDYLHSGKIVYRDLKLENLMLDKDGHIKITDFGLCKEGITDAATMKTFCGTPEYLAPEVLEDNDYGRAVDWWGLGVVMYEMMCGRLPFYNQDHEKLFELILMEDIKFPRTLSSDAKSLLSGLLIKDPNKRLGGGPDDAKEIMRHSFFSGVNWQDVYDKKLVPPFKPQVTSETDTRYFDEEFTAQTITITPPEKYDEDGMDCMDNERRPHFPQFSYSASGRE

What does the source list for C=CC1CN2CCC1C[C@H]2[C@@H](NC(=O)Nc1ccc(OC)cc1)c1ccnc2ccc(OC)cc12 (some centres undefined)?
IC50 [1]: 9.92 µM; IC50 [2]: > 10 µM; IC50 [3]: 5.85 µM; IC50 [4]: 6.29 µM; IC50 [5]: 9.55 µM; IC50 [6]: > 10 µM

What does the source list for C=CC1CN2CCC1CC2[C@@H](NC(=O)Nc1ccc(F)cc1)c1ccnc2ccc(OC)cc12 (some centres undefined)?
IC50 [1]: 2 µM; IC50 [2]: 3.9 µM; IC50 [3]: 2.81 µM; IC50 [4]: 3.65 µM; IC50 [5]: 5.88 µM; IC50 [6]: > 10 µM

What does the source list for C=CC1CN2CCC1C[C@H]2[C@@H](NC(=O)Nc1cc(OC)cc(OC)c1)c1ccnc2ccc(OC)cc12 (some centres undefined)?
IC50 [1]: 3.53 µM; IC50 [2]: 8.46 µM; IC50 [3]: 2.26 µM; IC50 [4]: 3.81 µM; IC50 [5]: 5.09 µM; IC50 [6]: 5.87 µM

With CCN(CC)CCCC(C)Nc1ccnc2cc(Cl)ccc12 (centres undefined) [CHLOROQUINE] as the molecule, how does the IC50 [1] read?
The IC50 was greater than 10 µM.

What about the IC50 [2] of the same molecule?
The IC50 was greater than 10 µM.

And the IC50 [3]?
The IC50 was greater than 10 µM.

What about the IC50 [4] of the same molecule?
The IC50 was greater than 10 µM.

What about the IC50 [5] of the same molecule?
The IC50 was greater than 10 µM.

What about the IC50 [6] of the same molecule?
The IC50 was greater than 10 µM.

Which IC50 [1] does the source give for C=CC1CN2CCC1C[C@H]2[C@@H](NC(=O)Nc1cccc(C(F)(F)F)c1)c1ccnc2ccc(OC)cc12 (some centres undefined) here?
The IC50 was 1.62 µM.

What about the IC50 [2] of the same molecule?
Its IC50 is greater than 10 µM.

And the IC50 [3]?
Its IC50 is 1.48 µM.

What about the IC50 [4] of the same molecule?
The IC50 was 6.1 µM.

And the IC50 [5]?
The IC50 was greater than 10 µM.

What about the IC50 [6] of the same molecule?
Its IC50 is 6.42 µM.

Which IC50 [1] does the source give for C=CC1CN2CCC1C[C@H]2[C@@H](NC(=O)Nc1ccccc1C(F)(F)F)c1ccnc2ccc(OC)cc12 (some centres undefined) here?
The IC50 was 3.05 µM.

What about the IC50 [2] of the same molecule?
Its IC50 is greater than 10 µM.

And the IC50 [3]?
The IC50 was 5.72 µM.

What about the IC50 [4] of the same molecule?
Its IC50 is 6.51 µM.

And the IC50 [5]?
The IC50 was greater than 10 µM.

And the IC50 [6]?
The IC50 was greater than 10 µM.

With C=CC1CN2CCC1CC2[C@@H](NC(=O)Nc1ccc(C(F)(F)F)cc1)c1ccnc2ccc(OC)cc12 (some centres undefined) as the molecule, how does the IC50 [1] read?
The IC50 was 0.59 µM.

And the IC50 [2]?
Its IC50 is 0.79 µM.

And the IC50 [3]?
The IC50 was 0.62 µM.

What about the IC50 [4] of the same molecule?
Its IC50 is 0.6 µM.

What about the IC50 [5] of the same molecule?
The IC50 was 1.08 µM.

And the IC50 [6]?
Its IC50 is 0.42 µM.

With C=CC1CN2CCC1C[C@H]2[C@@H](NC(=O)Nc1cc(C)cc(C)c1)c1ccnc2ccc(OC)cc12 (some centres undefined) as the molecule, how does the IC50 [1] read?
Its IC50 is 5.12 µM.

What about the IC50 [2] of the same molecule?
Its IC50 is greater than 10 µM.

What about the IC50 [3] of the same molecule?
Its IC50 is greater than 10 µM.

And the IC50 [4]?
Its IC50 is greater than 10 µM.

And the IC50 [5]?
The IC50 was 5.16 µM.

What about the IC50 [6] of the same molecule?
The IC50 was 7.31 µM.

What does the source list for C=CC1CN2CCC1CC2[C@@H](NC(=S)Nc1cc(C(F)(F)F)cc(C(F)(F)F)c1)c1ccnc2ccc(OC)cc12 (some centres undefined)?
IC50 [1]: 0.29 µM; IC50 [2]: 0.78 µM; IC50 [3]: 0.37 µM; IC50 [4]: 0.28 µM; IC50 [5]: 0.77 µM; IC50 [6]: 0.34 µM

With C=CC1CN2CCC1CC2[C@H](NC(=O)Nc1cc(C(F)(F)F)cc(C(F)(F)F)c1)c1ccnc2ccc(OC)cc12 (some centres undefined) as the molecule, how does the IC50 [1] read?
Its IC50 is 0.38 µM.

What about the IC50 [2] of the same molecule?
Its IC50 is 0.92 µM.

What about the IC50 [3] of the same molecule?
The IC50 was 0.42 µM.

What about the IC50 [4] of the same molecule?
Its IC50 is 0.62 µM.

What about the IC50 [5] of the same molecule?
The IC50 was 0.69 µM.

And the IC50 [6]?
Its IC50 is 0.6 µM.

What does the source list for C=CC1CN2CCC1CC2[C@@H](NC(=O)Nc1ccccc1)c1ccnc2ccc(OC)cc12 (some centres undefined)?
IC50 [1]: > 10 µM; IC50 [2]: > 10 µM; IC50 [3]: > 10 µM; IC50 [4]: 4.02 µM; IC50 [5]: 8.67 µM; IC50 [6]: > 10 µM

For C=CC1CN2CCC1CC2[C@@H](NC(=O)Nc1cc(C(F)(F)F)cc(C(F)(F)F)c1)c1ccnc2ccc(OC)cc12 (some centres undefined), which IC50 [1] is on record?
Its IC50 is 0.27 µM.

And the Activity [7]?
Its Activity is “Tde”.

What about the Activity [8] of the same molecule?
Its Activity is “Active”.

What about the Activity [9] of the same molecule?
Its Activity is “inactive”.

What about the Activity [10] of the same molecule?
The Activity was “Active”.

What about the IC50 [2] of the same molecule?
The IC50 was 0.72 µM.

What about the Activity [11] of the same molecule?
Its Activity is “Dose-dependent effect”.

And the Activity [12]?
The Activity was “Dose-dependent effect”.

And the Activity [13]?
The Activity was “Dose-dependent effect”.

And the Activity [14]?
The Activity was “Active”.

And the Activity [15]?
The Activity was “Dose-dependent effect”.

And the Activity [16]?
The Activity was “Dose-dependent effect”.

And the Activity [17]?
Its Activity is “Active”.

And the Activity [18]?
The Activity was “Tde”.

What about the Activity [19] of the same molecule?
The Activity was “Tde”.

And the Activity [20]?
The Activity was “Active”.

What about the Activity [21] of the same molecule?
The Activity was “Dose-dependent effect”.

And the IC50 [3]?
Its IC50 is 0.23 µM.

What about the Activity [22] of the same molecule?
The Activity was “Dose-dependent effect”.

And the Activity [23]?
Its Activity is “Active”.

And the Activity [24]?
Its Activity is “Tde”.

What about the Activity [25] of the same molecule?
The Activity was “Active”.

What about the IC50 [4] of the same molecule?
The IC50 was 0.13 µM.

What about the IC50 [5] of the same molecule?
The IC50 was 0.69 µM.

What about the Activity [26] of the same molecule?
The Activity was “Dose-dependent effect”.

What about the Activity [27] of the same molecule?
Its Activity is “Tde”.

What about the Activity [28] of the same molecule?
Its Activity is “Active”.

And the Activity [29]?
The Activity was “Active”.

And the Activity [30]?
The Activity was “Tde”.

And the Activity [31]?
Its Activity is “Active”.

And the Activity [32]?
The Activity was “inactive”.

What about the IC50 [6] of the same molecule?
Its IC50 is 0.27 µM.

And the inhibition [33]?
The inhibition was “Active”.
